In patent US9695154B2, “Heteroaryl inhibitors of sumo activating enzyme” (MILLENNIUM PHARMACEUTICALS, INC., priority 2013, dated 2017):

Target: T1, recombinant human SAE enzyme (Homo sapiens, UniProt Q9UBT2)
T1 sequence (Q9UBT2 1-640): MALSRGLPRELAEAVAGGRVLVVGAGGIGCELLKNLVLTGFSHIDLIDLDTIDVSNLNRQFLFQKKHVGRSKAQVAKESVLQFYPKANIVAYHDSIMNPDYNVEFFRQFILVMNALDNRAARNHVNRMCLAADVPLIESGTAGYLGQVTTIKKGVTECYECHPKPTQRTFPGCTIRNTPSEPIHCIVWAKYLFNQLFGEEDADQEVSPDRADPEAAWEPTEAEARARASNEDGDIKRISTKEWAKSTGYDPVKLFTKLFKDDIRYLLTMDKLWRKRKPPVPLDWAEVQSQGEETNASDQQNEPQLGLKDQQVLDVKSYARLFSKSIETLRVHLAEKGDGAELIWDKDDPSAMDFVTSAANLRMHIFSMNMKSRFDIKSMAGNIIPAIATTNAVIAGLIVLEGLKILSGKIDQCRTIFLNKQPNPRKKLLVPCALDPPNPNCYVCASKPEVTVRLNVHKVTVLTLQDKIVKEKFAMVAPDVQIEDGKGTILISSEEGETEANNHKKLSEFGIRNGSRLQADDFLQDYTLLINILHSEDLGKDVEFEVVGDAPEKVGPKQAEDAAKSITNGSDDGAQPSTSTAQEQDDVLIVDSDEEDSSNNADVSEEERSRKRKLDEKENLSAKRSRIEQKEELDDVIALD
T1 sequence (Q9UBE0 1-346 partner): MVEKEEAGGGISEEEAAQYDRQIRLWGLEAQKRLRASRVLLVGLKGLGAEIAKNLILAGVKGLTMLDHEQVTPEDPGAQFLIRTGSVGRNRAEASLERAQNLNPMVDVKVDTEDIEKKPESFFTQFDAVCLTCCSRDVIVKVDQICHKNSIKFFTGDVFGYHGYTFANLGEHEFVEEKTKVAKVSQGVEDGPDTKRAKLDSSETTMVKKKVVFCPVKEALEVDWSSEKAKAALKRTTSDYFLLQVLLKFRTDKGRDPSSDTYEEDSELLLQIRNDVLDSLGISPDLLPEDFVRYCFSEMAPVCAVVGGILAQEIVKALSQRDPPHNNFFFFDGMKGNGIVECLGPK
Assay: SAE HTRF Enzyme Assay
Format: biochemical
Settings: for IC50: class symbols A-C; for Percent Inhibition / inhibition at 0.111 µM: compound concentration 0.111 μM; for Percent Inhibition: 0.111 µM; for inhibition at 0.111 µM: read-out: Percent Inhibition
Description: The SAE enzymatic reaction totals 50 μl and contains 50 mM HEPES Hemisodium (pH 7.5), 0.05% BSA, 5 mM MgCl2, 0.5 μM ATP, 250 μM GSH, 0.01 μM Ubc9-GST, 0.125 μM Sumo-Flag and 0.11 nM recombinant human SAE enzyme. The enzymatic reaction mixture with and without inhibitor, Is incubated at 24° C. for 105 min in a 384-well plate before termination with […] of Stop/Detection buffer (0.1M HEPES Hemisodium pH 7.5, 0.05% Tween20, 20 mM EDTA, 410 mM KF, 0.53 nM Europium-Cryptate labeled monoclonal anti-Flag M2 Antibody (CisBio International) and 8.125 μg/ml PHYCOLINK goat anti-GST allophycocyanin (XL-APC) antibody (Prozyme)). After incubation for 2 hours at 24° C., quantification of FRET is performed on the Pherostar™ (BMG Labtech). Percentage inhibition values at a single concentration or enzyme inhibition (IC50) values are determined from those curves. One skilled in the art will appreciate that the values generated either as percentage inhibition at a single concentration or IC50 values are subject to experimental variation.

Compound | IC50 | Percent Inhibition | inhibition at 0.111 µM
CC#CC(C)n1ccc(C(=O)c2cncnc2N[C@@H]2C[C@H](COS(N)(=O)=O)[C@@H](O)C2)n1 (single isomer, unassigned) [Compound I-86, {(1R,2S,4R)-2-hydroxy-4-[(5-{[1-(2S)-(pent-3-yn-2-yl)-1H-pyrazol-3-yl]carbonyl}pyrimidin-4-yl)amino]cyclopentyl}methyl sulfamate or {(1R,2S,4R)-2-hydroxy-4-[(5-{[1-(2R)-(pent-3-yn-2-yl)-1H-pyrazol-3-yl]carbonyl}pyrimidin-4-yl)amino]cyclopentyl}methyl sulfamate] | 100 to 1000 nM | 35% | –
CC(c1cccc(Cl)c1)n1ccc(C(=O)c2cncnc2N[C@@H]2C[C@H](COS(N)(=O)=O)[C@@H](O)C2)n1 (single isomer, unassigned) [Compound I-133, [(1R,2S,4R)-4-{[5-({1-[(1S)-1-(3-chlorophenyl)ethyl]-1H-pyrazol-3-yl}carbonyl)pyrimidin-4-yl]amino}-2-hydroxycyclopentyl]methyl sulfamate or [(1R,2S,4R)-4-{[5-({1-[(1R)-1-(3-chlorophenyl)ethyl]-1H-pyrazol-3-yl}carbonyl)pyrimidin-4-yl]amino}-2-hydroxycyclopentyl]methyl sulfamate] | 10 to 100 nM | 61% | –
Cc1cc(C(=O)c2cncnc2N[C@@H]2C[C@H](COS(N)(=O)=O)[C@@H](O)C2)nn1C(C)c1cccc(Cl)c1 (single isomer, unassigned) [Compound I-172, [(1R,2S,4R)-4-{[5-({1-[(1R)-1-(3-chlorophenyl)ethyl]-5-methyl-1H-pyrazol-3-yl}carbonyl)pyrimidin-4-yl]amino}-2-hydroxycyclopentyl]methyl sulfamate or [(1R,2S,4R)-4-{[5-({1-[(1S)-1-(3-chlorophenyl)ethyl]-5-methyl-1H-pyrazol-3-yl}carbonyl)pyrimidin-4-yl]amino}-2-hydroxycyclopentyl]methyl sulfamate] | 10 to 100 nM | – | 83%
CCC(c1cccc(Br)c1)n1ccc(C(=O)c2cncnc2N[C@@H]2C[C@H](COS(N)(=O)=O)[C@@H](O)[C@@H]2F)c1 (single isomer, unassigned) [Compound I-175, [(1R,2R,3R,4R)-4-{[5-({1-[(1S)-1-(3-bromophenyl)propyl]-1H-pyrrol-3-yl}carbonyl)pyrimidin-4-yl]amino}-3-fluoro-2-hydroxycyclopentyl]methyl sulfamate or [(1R,2R,3R,4R)-4-{[5-({1-[(1R)-1-(3-bromophenyl)propyl]-1H-pyrrol-3-yl}carbonyl)pyrimidin-4-yl]amino}-3-fluoro-2-hydroxycyclopentyl]methyl sulfamate] | < 10 nM | – | 99%
CC(c1cccc(Br)c1)n1ccc(C(=O)c2cncnc2N[C@@H]2C[C@H](COS(N)(=O)=O)[C@@H](O)[C@@H]2F)c1 (single isomer, unassigned) [Compound I-192, [(1R,2R,3R,4R)-4-{[5-({1-[(1S)-1-(3-bromophenyl)ethyl]-1H-pyrrol-3-yl}carbonyl)pyrimidin-4-yl]amino}-3-fluoro-2-hydroxycyclopentyl]methyl sulfamate or [(1R,2R,3R,4R)-4-{[5-({1-[(1R)-1-(3-bromophenyl)ethyl]-1H-pyrrol-3-yl}carbonyl)pyrimidin-4-yl]amino}-3-fluoro-2-hydroxycyclopentyl]methyl sulfamate] | < 10 nM | – | 98%
CC(c1ccc(C(F)(F)F)o1)n1ccc(C(=O)c2cncnc2N[C@@H]2C[C@H](COS(N)(=O)=O)[C@@H](O)[C@@H]2F)c1 (single isomer, unassigned) [Compound I-304, [(1R,2R,3R,4R)-3-fluoro-2-hydroxy-4-({5-[(1-{(1S)-1-[5-(trifluoromethyl)-2-furyl]ethyl}-1H-pyrrol-3-yl)carbonyl]pyrimidin-4-yl}amino)cyclopentyl]methyl sulfamate or [(1R,2R,3R,4R)-3-fluoro-2-hydroxy-4-({5-[(1-{(1R)-1-[5-(trifluoromethyl)-2-furyl]ethyl}-1H-pyrrol-3-yl)carbonyl]pyrimidin-4-yl}amino)cyclopentyl]methyl sulfamate] | 10 to 100 nM | – | 91%
CC(c1cccc(Br)c1)n1ccc(C(=O)c2cncnc2N[C@@H]2C[C@H](COS(N)(=O)=O)[C@@H](O)C2)n1 (single isomer, unassigned) [Compound I-315, [(1R,2S,4R)-4-{[5-({1-[(1S)-1-(3-bromophenyl)ethyl]-1H-pyrazol-3-yl}carbonyl)pyrimidin-4-yl]amino}-2-hydroxycyclopentyl]methyl sulfamate or [(1R,2S,4R)-4-{[5-({1-[(1R)-1-(3-bromophenyl)ethyl]-1H-pyrazol-3-yl}carbonyl)pyrimidin-4-yl]amino}-2-hydroxycyclopentyl]methyl sulfamate] | < 10 nM | – | 99%
NS(=O)(=O)OC[C@H]1C[C@@H](Nc2ncncc2C(=O)c2ccn(C3CCc4ccccc43)n2)[C@H](O)[C@@H]1O (single isomer, unassigned) [Compound I-323, {(1R,2R,3S,4R)-4-[(5-{[1-((1R)-2,3-dihydro-1H-inden-1-yl)-1H-pyrazol-3-yl]carbonyl}pyrimidin-4-yl)amino]-2,3-dihydroxycyclopentyl}methyl sulfamate or {(1R,2R,3S,4R)-4-[(5-{[1-((1S)-2,3-dihydro-1H-inden-1-yl)-1H-pyrazol-3-yl]carbonyl}pyrimidin-4-yl)amino]-2,3-dihydroxycyclopentyl}methyl sulfamate] | 10 to 100 nM | – | 82%
CC(c1ccc(Cl)o1)n1ccc(C(=O)c2cncnc2N[C@@H]2C[C@H](COS(N)(=O)=O)[C@@H](O)[C@@H]2F)c1 (single isomer, unassigned) [Compound I-350, [(1R,2R,3R,4R)-4-{[5-({1-[(1S)-1-(5-chloro-2-furyl)ethyl]-1H-pyrrol-3-yl}carbonyl)pyrimidin-4-yl]amino}-3-fluoro-2-hydroxycyclopentyl]methyl sulfamate or [(1R,2R,3R,4R)-4-{[5-({1-[(1R)-1-(5-chloro-2-furyl)ethyl]-1H-pyrrol-3-yl}carbonyl)pyrimidin-4-yl]amino}-3-fluoro-2-hydroxycyclopentyl]methyl sulfamate] | < 10 nM | – | 96%
CC(c1ccccc1)n1ccc(C(=O)c2cncnc2N[C@@H]2C[C@H](COS(N)(=O)=O)[C@@H](O)[C@H]2O)n1 (single isomer, unassigned) [Compound I-351, {(1R,2R,3S,4R)-2,3-dihydroxy-4-[(5 -{[1-((1S)-1-phenylethyl)-1H-pyrazol-3-yl]carbonyl}pyrimidin-4-yl)amino]cyclopentyl}methyl sulfamate or {(1R,2R,3S,4R)-2,3-dihydroxy-4-[(5-{[1-((1R)-1-phenylethyl)-1H-pyrazol-3-yl]carbonyl}pyrimidin-4-yl)amino]cyclopentyl}methyl sulfamate] | < 10 nM | – | 97%
NS(=O)(=O)OC[C@H]1C[C@@H](Nc2ncncc2C(=O)c2ccn(C3CCc4ccccc43)n2)[C@H](O)[C@@H]1O (single isomer, unassigned) [Compound I-353, {(1R,2R,3S,4R)-4-[(5-{[1-((1R)-2,3-dihydro-1H-inden-1-yl)-1H-pyrazol-3-yl]carbonyl}pyrimidin-4-yl)amino]-2,3-dihydroxycyclopentyl}methyl sulfamate or {(1R,2R,3S,4R)-4-[(5-{[1-((1S)-2,3-dihydro-1H-inden-1-yl)-1H-pyrazol-3-yl]carbonyl}pyrimidin-4-yl)amino]-2,3-dihydroxycyclopentyl}methyl sulfamate] | 10 to 100 nM | 90% | –
